Measured values taken from US20220249463A1, “METHODS OF ALTERING CARDIAC REMODELING USING COMPOUNDS THAT PROMOTE GLUCOSE OXIDATION” (IMBRIA PHARMACEUTICALS, INC., priority 2019, published 2022).
Where “and” joins values, the source holds several entries; their conditions need not be identical. Equal values may be shown once.

Legend:
Phosphodiesterase PDE3 = type: biochemical, human; details: 10 μM CV-8814
Glutamate, Kainate = type: binding, rat; details: 10 μM CV-8814
Potassium Channel [KATP] = Potassium Channel [KATP] (Cricetus cricetus, UniProt Q09427); type: binding, hamster; details: 10 μM CV-8814
[1] = test system: Calcium Channel L-Type, Dihydropyridine; type: binding, rat; details: 10 μM CV-8814
Glutamate, NMDA, Agonism = type: binding, rat; details: 10 μM CV-8814
TAC mice [2] = assay: TAC mice: echocardiography; type: in vivo
TAC mice [3] = assay: TAC mice, six weeks treatment: heart weight and heart weight/body weight; type: in vivo; details: 6 weeks; for cardiac mass: TMZ 6, CV-8814 7.5, CV-8972 10 mg/kg/day, osmotic minipump
[4] = test system: GABAA, Flunitrazepam, Central; type: binding, rat; details: 10 μM CV-8814
[5] = test system: Glycine, Strychnine-Sensitive; type: binding, rat; details: 10 μM CV-8814
Transporter, GABA = type: binding, rat; details: 10 μM CV-8814
Nicotinic Acetylcholine = type: binding, human; details: 10 μM CV-8814
Transporter, Adenosine = type: binding, guinea pig; details: 10 μM CV-8814
[6] = test system: GABAA, Chloride Channel, TBOB; type: binding, rat; details: 10 μM CV-8814
Phosphodiesterase PDE4 = type: biochemical, human; details: 10 μM CV-8814
Glutamate, AMPA = type: binding, rat; details: 10 μM CV-8814
[7] = test system: Glutamate, NMDA, Phencyclidine; type: binding, rat; details: 10 μM CV-8814
[8] = test system: Calcium Channel L-Type, Phenylalkylamine; type: binding, rat; details: 10 μM CV-8814
[9] = test system: Calcium Channel L-Type, Benzothiazepine; type: binding, rat; details: 10 μM CV-8814
[10] = test system: Glutamate, NMDA, Polyamine; type: binding, rat; details: 10 μM CV-8814
Sodium Channel, Site 2 = type: binding, rat; details: 10 μM CV-8814
[11] = test system: GABAA, Ro-15-1788, Hippocampus; type: binding, rat; details: 10 μM CV-8814
TAC mice [12] = assay: TAC mice: left ventricular pressure with Mikro-tip catheter; type: in vivo; details: end of 6-week treatment; for left ventricular developed pressure (LVDP): TMZ 6, NA 2.4, CV-8814 7.5, CV-8972 10 mg/kg/day
[13] = test system: ATPase, Na^+/K^+, pig heart; type: biochemical; details: 10 μM CV-8814
[14] = test system: Protein Serine/Threonine Kinase, PKC, Non-selective; type: biochemical, rat; details: 10 μM CV-8814
TAC mice [15] = assay: TAC mice: cardiac fibrosis, Masson's trichrome; type: in vivo; details: end of 6-week experiment
[16] = test system: isolated hearts after ischemia-reperfusion; assay: Ischemia-reperfusion (IR): cardiac function (left ventricular pressure); parameters: species or system mice; details: for left ventricular developed pressure (LVDP), Mean: Table 6 group mean; for HR / LVDP / LVDPxHR / LVEDP / LVESP: individual hearts, MEAN = group mean
Procedure: FIG. 38 is a schematic of the ischemia-reperfusion (IR) method used to analyze the effects of selected compositions on coronary flow, cardiac function, and infarct size. […] At 20 minutes, ischemia was induced, and coronary flow was analyzed. At 50 minutes, reperfusion was initiated to restore blood flow. At 170 minutes, coronary flow and cardiac function was analyzed, and then the hearts were preserved, sectioned, and infarct size was measured by triphenyltetrazolium chloride (TTC) staining. FIG. 40 is graph of left ventricular developed pressure (LVDP) after IR.

[17] = test system: isolated hearts after ischemia-reperfusion; assay: Ischemia-reperfusion (IR): coronary flow; type: in vivo, mice; details: TMZ 20 μM, TNF 2 μM each, TNS 20 μM each, individual hearts, MEAN = group mean; for CF20: coronary flow at 20 minutes; for CF170: coronary flow at 170 minutes, after IR; for CF170/CF20: ratio of flow at 170 minutes to flow at 20 minutes
Procedure: FIG. 38 is a schematic of the ischemia-reperfusion (IR) method used to analyze the effects of selected compositions on coronary flow, cardiac function, and infarct size. […] At 20 minutes, ischemia was induced, and coronary flow was analyzed. At 50 minutes, reperfusion was initiated to restore blood flow. At 170 minutes, coronary flow and cardiac function was analyzed, and then the hearts were preserved, sectioned, and infarct size was measured by triphenyltetrazolium chloride (TTC) staining. FIG. 39 is a graph of coronary flow of after IR.

[18] = test system: isolated hearts after ischemia-reperfusion; assay: Ischemia-reperfusion (IR): infarct size by TTC staining; type: in vivo, mice
Procedure: FIG. 38 is a schematic of the ischemia-reperfusion (IR) method used to analyze the effects of selected compositions on coronary flow, cardiac function, and infarct size. […] At 20 minutes, ischemia was induced, and coronary flow was analyzed. At 50 minutes, reperfusion was initiated to restore blood flow. At 170 minutes, coronary flow and cardiac function was analyzed, and then the hearts were preserved, sectioned, and infarct size was measured by triphenyltetrazolium chloride (TTC) staining. […] FIG. 42 is graph of infarct size after IR.

[19] = TMZ 6, NA 2.4, CV-8814 7.5, CV-8972 10 mg/kg/day
[20] = TMZ 20 μM, TNF 2 μM each, TNS 20 μM each

Sequence of Potassium Channel [KATP] (Q09427 whole entry): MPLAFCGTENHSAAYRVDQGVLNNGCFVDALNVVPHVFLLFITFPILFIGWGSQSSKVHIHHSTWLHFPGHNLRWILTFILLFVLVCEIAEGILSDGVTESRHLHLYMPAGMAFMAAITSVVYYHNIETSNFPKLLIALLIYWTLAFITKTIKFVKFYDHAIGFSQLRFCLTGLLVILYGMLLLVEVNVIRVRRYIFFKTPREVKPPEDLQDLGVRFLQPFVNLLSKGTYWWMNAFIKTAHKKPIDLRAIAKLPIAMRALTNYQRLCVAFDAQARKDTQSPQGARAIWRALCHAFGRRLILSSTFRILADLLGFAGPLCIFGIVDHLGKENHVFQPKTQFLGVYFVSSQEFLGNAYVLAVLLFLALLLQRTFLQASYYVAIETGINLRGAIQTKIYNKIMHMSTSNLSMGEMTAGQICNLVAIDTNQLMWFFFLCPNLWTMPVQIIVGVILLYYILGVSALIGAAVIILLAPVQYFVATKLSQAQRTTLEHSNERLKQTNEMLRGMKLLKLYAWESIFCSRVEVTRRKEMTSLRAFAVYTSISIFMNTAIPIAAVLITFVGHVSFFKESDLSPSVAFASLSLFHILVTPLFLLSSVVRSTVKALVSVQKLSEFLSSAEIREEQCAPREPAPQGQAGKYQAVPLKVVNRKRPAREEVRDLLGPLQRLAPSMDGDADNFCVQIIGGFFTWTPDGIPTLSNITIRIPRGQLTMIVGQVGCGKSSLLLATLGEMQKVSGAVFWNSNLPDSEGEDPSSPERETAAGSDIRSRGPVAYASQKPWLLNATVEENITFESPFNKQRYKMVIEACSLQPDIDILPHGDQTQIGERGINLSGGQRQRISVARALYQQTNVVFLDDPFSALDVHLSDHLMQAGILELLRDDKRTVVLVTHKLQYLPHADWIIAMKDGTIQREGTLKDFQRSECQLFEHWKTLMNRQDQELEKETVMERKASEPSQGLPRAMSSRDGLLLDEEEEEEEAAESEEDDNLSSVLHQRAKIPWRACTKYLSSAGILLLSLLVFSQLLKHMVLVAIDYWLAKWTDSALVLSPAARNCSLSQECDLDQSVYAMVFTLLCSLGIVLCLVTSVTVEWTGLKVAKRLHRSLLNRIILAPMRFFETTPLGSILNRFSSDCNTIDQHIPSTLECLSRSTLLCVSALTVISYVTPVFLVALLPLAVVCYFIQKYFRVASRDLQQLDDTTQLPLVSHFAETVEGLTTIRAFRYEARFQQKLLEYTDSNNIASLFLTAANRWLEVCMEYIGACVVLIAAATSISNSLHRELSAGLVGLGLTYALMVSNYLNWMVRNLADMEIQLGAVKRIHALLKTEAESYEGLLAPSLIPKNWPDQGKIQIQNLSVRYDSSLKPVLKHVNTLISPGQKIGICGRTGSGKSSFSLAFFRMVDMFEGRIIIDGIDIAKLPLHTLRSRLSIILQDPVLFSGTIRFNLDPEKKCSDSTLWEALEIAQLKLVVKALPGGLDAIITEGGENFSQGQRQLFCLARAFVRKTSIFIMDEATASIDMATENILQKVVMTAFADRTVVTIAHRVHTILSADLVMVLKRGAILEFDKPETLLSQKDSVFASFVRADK

In the case of `COc1ccc(CN2CCN(CCO)CC2)c(OC)c1OC` [CV-8814, 2-(4-(2,3,4-trimethoxybenzyl)piperazin-1-yl)ethan-1-ol], the Inhibition (Phosphodiesterase PDE3) is reported as < 50%, the Inhibition (Glutamate, Kainate) is reported as < 50% and the inhibition at 10 µM (Potassium Channel [KATP]) is reported as < 50%. The Inhibition [1] was < 50%, the Inhibition (Glutamate, NMDA, Agonism) was < 50% and the “EF (in words)” value (TAC mice [2]; 3-weeks after TAC) was “significantly increased”. It also gave an IVRT (TAC mice [2]; 3-weeks after TAC) of 33 ± 1 ms, an IVSd (TAC mice [2]; 3-weeks after TAC) of 1.27±0.02 mm and an LV mass (TAC mice [2]; 3-weeks after TAC) of 152 ± 9 mg. For the same molecule, the “left ventricular FS” value (TAC mice [2]; 3-weeks after TAC, CV-8814 7.5, CV-8972 10 mg/kg/day) was 46%±2%, the IVRT (TAC mice [2]; 6-weeks after TAC) was 28 ± 2 ms and the IVSd (TAC mice [2]; 6-weeks after TAC) was 1.26±0.04 mm. The “left ventricular FS” value (TAC mice [2]; 6-weeks after TAC (end of the experiment)) was 44%±3%, the “cardiac functions in TAC mice (in words)” value (TAC mice [2]; conclusion, 6 weeks treatment) was “improved cardiac functions” and the “EF (in words)” value (TAC mice [2]; to the end of the study (6 weeks)) was “protective effect was sustained to the end of the study”. For the same molecule, the “cardiac remodeling in TAC mice (in words)” value (“cardiac remodeling” for short) (TAC mice [3]; [19]) was “effectively inhibited cardiac remodeling”, the cardiac mass (TAC mice [3]; TAC mice) was 227 ± 12 mg and the “heart weight to body weight ratio” value (TAC mice [3]; TAC mice, TMZ 6, NA 2.4, CV-8814 7.5, CV-8972 10 mg/kg/day, subcutaneous osmotic minipump) was 7.6 ± 0.4 mg/g. For the same molecule, the Inhibition [4] was < 50%, the Inhibition [5] was < 50% and the Inhibition (Transporter, GABA) was < 50%. The Inhibition (Nicotinic Acetylcholine) was < 50%, the Inhibition (Transporter, Adenosine) was < 50% and the Inhibition [6] was < 50%. The Inhibition (Phosphodiesterase PDE4) was < 50%, the Inhibition (Glutamate, AMPA) was < 50% and the Inhibition [7] was < 50%. The Inhibition [8] was < 50%, the Inhibition [9] was < 50% and the Inhibition [10] was < 50%. The Inhibition (Sodium Channel, Site 2) was < 50%, the Inhibition [11] was < 50% and the “+dp/dtm” value (TAC mice [12]) was 4572±268 mm Hg/sec. For the same molecule, the “left ventricular developed pressure (LVDP)” value (TAC mice [12]) was 123±8 mm Hg, the Inhibition [13] was < 50% and the Inhibition [14] was < 50%.
`O=C(O)c1cccnc1` [NA, nicotinic acid, reference compound] was tested, and the “cardiac fibrosis (fibrotic area to whole heart tissue area)” value (TAC mice [15]) was 8.2±1%, the IVRT (TAC mice [2]; 6-weeks after TAC) was 29 ± 2 ms and the “IVSd (in words)” value (TAC mice [2]; TAC mice, NA 2.4 mg/kg/day) was “decreased IVSd”. The “LV mass (in words)” value (TAC mice [2]; TAC mice, NA 2.4 mg/kg/day) was “no effect on LV mass”, the “cardiac remodeling” value (TAC mice [3]; [19]) was “no significant effect on cardiac remodeling” and the “left ventricular developed pressure (LVDP)” value (TAC mice [12]) was 141±20 mm Hg.
For `COc1ccc(CN2CCNCC2)c(OC)c1OC` [TMZ, trimetazidine], the “cardiac fibrosis (fibrotic area to whole heart tissue area)” value (TAC mice [15]) was 7.6±1%, the LV mass (TAC mice [2]; 3-weeks after TAC) was 153 ± 8 mg and the IVRT (TAC mice [2]; 6-weeks after TAC) was 36 ± 1 ms. For the same molecule, the LV mass (TAC mice [2]; 6-weeks after TAC) was 176 ± 15 mg, the “cardiac remodeling” value (TAC mice [3]; [19]) was “effectively inhibited cardiac remodeling” and the cardiac mass (TAC mice [3]; TAC mice) was 224 ± 12 mg. The “left ventricular developed pressure (LVDP), Mean” value ([16]; T20 (20 minutes)) was 55.86, the “left ventricular developed pressure (LVDP), Mean” value ([16]; T170 (170 minutes, after IR)) was 48.91 and the “cardiac function after IR (in words)” value [16, 20] was “prevented a decline in cardiac function”. For the same molecule, the HR ([16]; after 2h reperfusion) was 1.18E+02 and 1.19E+02 and 1.01E+02 and 1.51E+02 and 6.70E+01 and 9.22E+01 and 2.22E+02 and 1.70E+02 and 1.16E+02 and 2.38E+02, the LVDP ([16]; after 2h reperfusion) was 2.14E+01 and 4.34E+01 and 5.22E+01 and 2.97E+01 and 4.84E+01 and 4.67E+01 and 4.10E+01 and 7.65E+01 and 5.53E+01 and 7.43E+01 and the LVDPxHR ([16]; after 2h reperfusion) was 2.52E+03 and 5.15E+03 and 5.28E+03 and 4.49E+03 and 3.24E+03 and 4.31E+03 and 9.11E+03 and 1.30E+04 and 6.44E+03 and 1.77E+04. For the same molecule, the LVEDP ([16]; after 2h reperfusion) was 2.93E+01 and 3.31E+01 and 3.96E+01 and 1.80E+01 and 3.36E+00 and 1.87E+00 and 1.99E+01 and 3.21E+01 and 1.84E+01 and 1.77E+00, the LVESP ([16]; after 2h reperfusion) was 5.07E+01 and 7.66E+01 and 9.19E+01 and 4.77E+01 and 5.18E+01 and 4.86E+01 and 6.09E+01 and 1.09E+02 and 7.38E+01 and 7.61E+01 and the HR ([16]; after 2h reperfusion, mean) was 1.39E+02. It also gave an LVDP ([16]; after 2h reperfusion, mean) of 4.89E+01, an LVDPxHR ([16]; after 2h reperfusion, mean) of 6.82E+03 and an LVEDP ([16]; after 2h reperfusion, mean) of 1.97E+01. The LVESP ([16]; after 2h reperfusion, mean) was 6.86E+01, the LVESP ([16]; pre-ischemia, TMZ 20 μM, TNF 2 μM each, TNS 20 μM each) was 7.58E+01 and 8.44E+01 and 7.15E+01 and 5.47E+01 and 6.87E+01 and 4.27E+01 and 3.30E+01 (2×) and 6.60E+01 and 7.38E+01 and the LVESP ([16]; pre-ischemia, TMZ 20 μM, TNF 2 μM each, TNS 20 μM each, mean) was 6.03E+01. The HR ([16]; pre-ischemia) was 2.63E+02 and 2.93E+02 and 1.66E+02 and 3.35E+02 and 3.58E+02 and 3.33E+02 and 3.48E+02 and 3.21E+02 and 2.67E+02 and 3.32E+02, the LVDP ([16]; pre-ischemia) was 6.93E+01 and 7.90E+01 and 6.48E+01 and 5.30E+01 and 6.51E+01 and 3.80E+01 and 2.82E+01 and 3.15E+01 and 5.87E+01 and 7.11E+01 and the LVDPxHR ([16]; pre-ischemia) was 1.83E+04 and 2.31E+04 and 1.08E+04 and 1.77E+04 and 2.33E+04 and 1.26E+04 and 9.82E+03 and 1.01E+04 and 1.57E+04 and 2.36E+04. For the same molecule, the LVEDP ([16]; pre-ischemia) was 6.53E+00 and 5.43E+00 and 6.76E+00 and 1.74E+00 and 3.58E+00 and 4.71E+00 and 4.77E+00 and 1.46E+00 and 7.25E+00 and 2.70E+00, the HR ([16]; pre-ischemia, mean) was 3.02E+02 and the LVDP ([16]; pre-ischemia, mean) was 5.59E+01. The LVDPxHR ([16]; pre-ischemia, mean) was 1.68E+04, the LVEDP ([16]; pre-ischemia, mean) was 4.49E+00 and the CF20 [17] was 2.13 mL/min and 1.7 mL/min and 2.18 mL/min and 3.83 mL/min and 1.72 mL/min and 2.4 mL/min and 2.14 mL/min and 2.03 mL/min. For the same molecule, the CF20 ([17]; mean) was 2.27 mL/min, the CF170 [17] was 0.0516 mL/min and 0.1 mL/min and 0.0778 mL/min and 0.129 mL/min and 0.0898 mL/min and 0.0656 mL/min and 0.0556 mL/min and 0.13 mL/min and the CF170 ([17]; mean) was 0.0874 mL/min. For the same molecule, the CF170/CF20 [17] was 2.42E+01 μl/ml and 5.87E+01 μl/ml and 3.57E+01 μl/ml and 3.37E+01 μl/ml and 5.21E+01 μl/ml and 2.73E+01 μl/ml and 2.60E+01 μl/ml and 6.39E+01 μl/ml, the CF170/CF20 ([17]; mean) was 4.02E+01 μl/ml and the “infarct size after IR (in words)” value [18, 20] was “decreased infarct size”. The IS/LV ([18]; individual isolated hearts after ischemia-reperfusion) was 58% and 49% (2×) and 44% and 71% and 64% and 68% and 60% and 43% and 51%, the “IS/LV Mean” value ([18]; mean of 10 hearts of the group) was 56% and the “+dp/dtm” value (TAC mice [12]) was 5157±615 mm Hg/sec. For the same molecule, the “left ventricular developed pressure (LVDP)” value (TAC mice [12]) was 137±10 mm Hg.
